Results published in patent publication US20030144148A1, “Method for plant-protection treatment by leaf absorption, using a combination between an active ingredient and a modified oil and novel combination for using said method” (SOCIETE D'EXPLOITATION DE PRODUITS POUR LES INDUSTRIES …, priority 1998, published 2003).

Key:
[1] = tested on: barley (Hordeum vulgare) leaves; assay: Leaf penetration of 2,4-D, alone or in combination with modified oils; assay type: in vivo; conditions: percentage of 2,4-D penetrated into barley leaf
Method: (§1) Ten drops are applied to the adaxial surface of the first leaf. After 0, 4, 6, 24 or 72 hours, the product which has not penetrated is washed with 0.5 ml of acetone and the radioactivity measured by liquid scintillation. The radioactivity present in the treated leaf in the rest of the plant is determined in the carbon dioxide obtained after burning the tissue.
The penetration into barley (Hordeum vulgare) leaves, of 2,4-D or (2,4-dichlorophenoxy) acetic acid, which is a herbicide with a highly dissociated carboxylic acid function, alone or in combination with modified oils, was compared according to the procedure described in the preceding paragraph.

[2] = tested on: barley (Hordeum vulgare) leaves; assay: Leaf penetration of carbon-14 labeled phenmedipham, alone or in combination with modified oils; assay type: in vivo; set-up: dose or concentration left out as unconfirmed; conditions: percentage of phenmedipham penetrated into barley leaf, 72 hours after application in acetone
Method: as §1

## O=C(O)COc1ccc(Cl)cc1Cl [2,4-D ALONE, (2,4-dichlorophenoxy) acetic acid]
[1]; 24 hours after application
  LEAF PENETRATION AT: 24 HOURS: 10%
[1]; 72 hours after application
  LEAF PENETRATION AT: 72 HOURS: 15%

## COC(=O)Nc1cccc(OC(=O)Nc2cccc(C)c2)c1 [PH[…], 3-[(methoxycarbonyl)amino] phenyl (3-methylphenyl)-carbamate]
[2]
  LEAF PENETRATION AT: 72 HOURS: <10%
